Source: patent publication US20040142875A1, “Metastin derivatives and their use” (priority 2003, published 2004)
“Also recorded” adds a separate entry of the source. The star is where a group is joined. X1 = 4‑(N,N-Bis(2-pyridylmethyl)aminomethyl)benzoyl, O=C(c1ccc(CN(Cc2ccccn2)Cc2ccccn2)cc1)*; 4‑(guanidinomethyl)benzoyl = N=C(N)NCc1ccc(C(=O)*)cc1

How the values were obtained:
[1] = system: Panc-1 cells; assay: Cell proliferation assay, Panc-1; assay type: cell-based; settings: for proliferation activity (cell growth): Panc-1 with KiSS-1 short derivatives, FIG. 7A
Procedure: (§1) Pancreatic cancer cell lines AsPC-1, BxPC-3, Capan-2, CFPAC-1, Panc-1 and Suit-2 were purchased from the American Type Culture Collection. Cells were cultured as monolayers in the appropriate medium supplemented with 10% fetal bovine serum, 100 units/ml penicillin, and 100 μg/ml streptomycin at 37° C., in a humid atmosphere of 5% CO2/95% air. As for AsPC-1 and Panc-1, upon reaching 80% confluence, the medium was removed, the cells were washed in phosphate-buffered saline (PBS) and treated with increasing doses of metastin (Takeda Chemical Industries, Osaka, Japan) with 10% fetal bovine serum and protein was isolated 15 minutes later as described below.
(§2) For assaying proliferation, AsPC-1 and Panc-1 cells (1×10^4cells/3 cm diameter dish) were seeded in 10% FBS medium and incubated with increasing doses of metastin for 48 and 96 hours. Cells were trypsinized and cell numbers were counted using hematocytometer.

[2] = system: Panc-1 cells; assay: Cell migration assay, Panc-1; assay type: cell-based; settings: for migration index: Panc-1 with KiSS-1 short derivatives, FIG. 7B
Procedure: (§3) A polyvinylpyrrolidone-free polycarbonate framed filter (8 μm pores) was set in a microchemotasis chamber (Corning Coster Corp., Cambridge, Mass.). Cells (2×10^6 cells in 200 μl RPMI1640 for AsPC-1 and in 200 μl DMEM for Panc-1) and peptide were added to the upper chamber and incubated at 37° C. for 12 hours to allow migration to the lower chamber, which contained 10% FBS/RPMI1640 for AsPC-1 or 5% FBS/DMEM for Panc-1 as a chemoattractant. After removing nonmigrating cells with a cotton swab from the upper surface of the membrane, cells on the lower surface were fixed, stained with Diff-Quick (International Reagent, Kobe, Japan). For quantification, cells were counted under a microscope in five predetermined fields at X200.

[3] = system: ERK1/2, p38 and JNK1/2 in Panc-1 cells; assay: MAPK activation by Western blot, Panc-1; assay type: cell-based; settings: 15 minutes, immunoblot, FIG. 5, FIG. 7C
Procedure: as §1
Cells were collected into microtubes with a cell scraper and lysed for 60 min in phosphorylation-inhibitory RIPA buffer containing 50 mM HEPES (pH 7.0), 250 mM NaCl, 0.1% Nonidet P-40, 1 mM phenylmethylsulfonyl fluoride (PMSF) and 20 μg /ml gabexate mesilate, then the lysate was sonicated for 10 sec. Total extracts were cleaned by centrifugation at 12,000 rpm for 10 min at 4° C., the supernatants were collected. Protein concentrations were measured using a protein assay kit (Tonein-TP, Otsuka Pharmaceutical, Tokyo, Japan). The lysates were resuspended in one volume of the gel loading buffer which contained 50 mM Tris-HCl (pH 6.7), 4% SDS, 0.02% bromophenol blue, 20% glycerol and 4% 2-mercaptoethanol, and then boiled at 95° C. for 90 sec. The extracted protein was subjected to Western blotting, as previously described (Wada, M. et al., Pancreas. 15: 176-82., 1997). In brief, 30 μg aliquots of protein was size-fractionated to a single dimension by SDS-PAGE (12% gels) and transblotted to a 0.45 μm polyvinylidene difluoride membrane (Bio-Rad, Richmond, Calif.) in a semidry electroblot apparatus (Bio-Rad, Richmond, Calif.). The blots were, then washed three times with TBST buffer and incubated for two hours at RT in the first antibody solution containing anti-phosphoERK antibody (#pTEpY, Promega, Madison, Wis.), anti-phosphop38 MAPK (#pTGpY, Promega, Madison, Wis.) or anti-phosphoJNK(#pTPpY, Promega, Madison, Wis.), 0.2% I-block (Promega, Madison, Wis.). After three washings in TBST buffer, the blots were incubated for one hour at RT with horseradish peroxidase conjugated anti-rabbit IgG at a 1:2000 dilution with TBST buffer. After three washings in TBST buffer, membranes were treated with enhanced chemiluminescence reagents (Amersham Life Sciences, Amersham, UK) according to the manufacturer's protocol. Membranes were exposed to X-ray film for 5-60 seconds. Protein expression was measured by ATTO densito-analyzer system AE-6920M (ATTO Corporation, Tokyo Japan) and the quantity was expressed numerically. The quantity of the target protein was divided by that of beta actin and relative intensities were obtained.
To evaluate the signaling pathways activated by endogenous metastin receptors in pancreatic cancer, activation of MAPK was examined by treatment with metastin. Cells in exponential stage were incubated in serum containing medium and then transferred to the 1% BSA medium with metastin, as in the case of migration or invasion assay. After incubation with increasing dose of metastin (0 μM, 0.1 μM, 1 μM, 10 μM) for 15 minutes, activation of ERK1/2, p38 and JNK1/2 were measured by immunoblot (FIG. 5A).

[4] = system: ERK1/2, p38 and JNK1/2 in AsPC-1 cells; assay: MAPK activation by Western blot, AsPC-1; assay type: cell-based; settings: 0-10 μM for 15 minutes, immunoblot
Procedure: as §1
Cells were collected into microtubes with a cell scraper and lysed for 60 min in phosphorylation-inhibitory RIPA buffer containing 50 mM HEPES (pH 7.0), 250 mM NaCl, 0.1% Nonidet P-40, 1 mM phenylmethylsulfonyl fluoride (PMSF) and 20 μg /ml gabexate mesilate, then the lysate was sonicated for 10 sec. […] Protein concentrations were measured using a protein assay kit (Tonein-TP, Otsuka Pharmaceutical, Tokyo, Japan). […] Protein expression was measured by ATTO densito-analyzer system AE-6920M (ATTO Corporation, Tokyo Japan) and the quantity was expressed numerically. The quantity of the target protein was divided by that of beta actin and relative intensities were obtained. […]

[5] = system: hOT7T175 transfected Chinese hamster ovary (CHO) cells; settings: hOT7T175 transfected CHO cells in vitro; Hori et al., Kotani et al.; cited from earlier work
[6] = system: AsPC-1 cells; assay: Cell proliferation assay, AsPC-1; assay type: cell-based; settings: metastin 0, 100 μM, 1 μM and 10 μM for 48 hours and 96 hours, FIG. 3
Procedure: as §1, §2

[7] = system: AsPC-1 cells; assay: Cell migration assay, AsPC-1; assay type: cell-based; settings: metastin 0 μM, 100 μM, 1 μM, 10 μM for 12 hours, FIG. 4A
Procedure: as §3

[8] = system: Panc-1 cells; assay: Matrigel invasion assay, Panc-1; assay type: cell-based; settings: 10 μM metastin, 12 hours, FIG. 4B
Procedure: (§4) Cells and peptide (2×10^6 cells in 200 μl RPMI1640 for AsPC-1 and in 200 μl DMEM for Panc-1) were added to a Matrigel-coated Transwell(8 μm pores,. Becton Dickinson Labware, Bedford, Mass.) and incubated at 37° C. for 12 hours versus a lower chamber containing 10% FBS/RPMI1640 for AsPC-1 or 5% FBS/DMEM for Panc-1. After removing the Matrigel and cells from the upper surface of the membrane, cells on the lower surface were fixed, stained with Diff-Quick and quantified the number as well. Invasion index was defined as the number of invasion cells per that of migrating cells.

[9] = system: AsPC-1 cells; assay: Matrigel invasion assay, AsPC-1; assay type: cell-based; settings: 10 μM metastin, 12 hours, FIG. 4B
Procedure: as §4

[10] = system: hOT7T175 transfected B16-BL6 melanomas; settings: hOT7T175 transfected B16-BL6 melanomas in vivo; Ohtaki et al.; cited from earlier work

| Substance | proliferation activity (cell growth) [1] | migration index [2] | activation of ERK1 (pERK1) [3] | activation of JNK1/2 (pJNKs) [3] | activation of p38 (pp38) [3] | cell growth ([1]; Panc-1, metastin 0, 100 μM, 1 μM and 10 μM for 48 hours and 96 hours, FIG. 3) | activation of ERK1 (pERK1) [4] | activation of JNK1/2 (pJNKs) [4] | chemotaxis and invasion [5] | cell growth [6] | migratory activity [7] | reduction of migratory activity ([2]; Panc-1, metastin 0 μM, 100 μM, 1 μM, 10 μM for 12 hours, p<0.01, FIG. 4A) | invasion activity (invasion index) [8] | invasion activity (invasion index) [9] | pulmonary metastasis [10] |
| --- | --- | --- | --- | --- | --- | --- | --- | --- | --- | --- | --- | --- | --- | --- | --- |
| 4-(guanidinomethyl) benzoyl-Phe-Gly-Leu-Arg-Trp-NH2 ({4‑(guanidinomethyl)benzoyl}-FGLRW-NH2) [FM053a] | cell growth was not affected | reduced the migration index; also recorded: less suppressive than FM052a | less activation of pERK1 than FM052a | not augmented | slightly activated |  |  |  |  |  |  |  |  |  |  |
| 4-[N,N-Bis(2 -pyridylmethyl)aminomethyl]benzoyl-Phe-Gly-Leu-Arg-Trp-NH2 (X1-FGLRW-NH2) [FM052a] | cell growth was not affected | reduced the migration index; also recorded: nearly same activity with metastin | ERK1 activation was observed | not augmented | slightly activated |  |  |  |  |  |  |  |  |  |  |
| metastin: 54 amino acid peptide with C-terminal amidation processed from KiSS-1; ligand of receptor hOT7T175 (AXOR12) |  |  | pERK1 was augmented | no reduction or increase of pJNKs | Slight activation of p38 | Neither AsPC-1 nor Panc-1 showed growth retardation | pERK1 was augmented | no reduction or increase of pJNKs | inhibit chemotaxis and invasion | Neither AsPC-1 nor Panc-1 showed growth retardation | little influenced | up to 40% | Invasion activity was not influenced | Invasion activity was not influenced | attenuates pulmonary metastasis |
